The structures appear in SMILES notation.

The assay concerns the target T1, human Mas receptor (Homo sapiens, UniProt P04201).
T1 construct: expressed in transfected cells
T1 sequence (P04201 1-325): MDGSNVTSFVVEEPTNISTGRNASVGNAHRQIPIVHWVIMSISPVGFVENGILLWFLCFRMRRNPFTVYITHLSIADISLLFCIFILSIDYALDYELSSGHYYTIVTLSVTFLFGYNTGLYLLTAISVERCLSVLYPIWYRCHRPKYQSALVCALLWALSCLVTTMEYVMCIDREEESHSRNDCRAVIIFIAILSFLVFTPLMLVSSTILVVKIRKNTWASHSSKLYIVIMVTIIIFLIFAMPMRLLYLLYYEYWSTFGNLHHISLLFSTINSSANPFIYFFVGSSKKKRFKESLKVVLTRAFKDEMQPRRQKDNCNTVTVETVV
The assay is described as follows: Mas receptor IP3 assay (inverse agonist assay). The class given is cell-based. The settings on record: HEK293 cells over-expressing human Mas receptor; average from several experiments. As for the experimental part:
The Mas receptor IP3 assay was performed using a mammalian cell line (HEK293) which was transfected with a plasmid containing the human Mas receptor and selected for stable expression of the receptor. For the inverse agonist assay, higher levels of Mas receptor constitutive activity were desired. To achieve this, Mas receptor expression levels were increased by transiently transfecting the same Mas receptor stable cell line with additional human Mas receptor plasmid DNA following standard procedures. These cells were used in the Mas receptor IP3 assay approximately 24 hours post-transfection.
Cells were split into 96-well plates (50,000 cells/well) and allowed to attach for a period of 6 hours. The growth medium was then replaced with medium supplemented with 4 μCi/ml [^3H]myo-inositol (100 μl; Perkin Elmer Life Sciences) and the cells were allowed to incubate for approximately 20 hours. Test compounds were serially diluted in inositol-free media containing 10 mM LiCl. The media in the plates was removed by aspiration, replaced with these test compound solutions and incubated at 37° C. for 1 hour. Following this incubation, the media was removed by aspiration and replaced with buffer containing 0.1M formic acid. The plates were then frozen overnight at −80° C. to achieve complete cell lysis.
The following day, the assay plates were thawed at room temperature. The thawed contents were then transfered to 96-well filter plates (Millipore, Multiscreen) pre-loaded with resin (Biorad, AG1-X8 100-200 mesh, formate form). The plate was filtered using a vacuum manifold and the resin was washed multiple times with water. An elution buffer was then applied (200 μl, 0.2M Ammonium formate/0.1M formic acid) and the resulting eluent was collected, under vacuum, in a 96-well collection plate. Aliquots of the eluent (80 μl) were transferred to filter plates (Whatman, Unifilter GF/C) and dried in a 45° C. oven overnight. Dried plates were counted on a scintillation counter following the addition of an appropriate scintillant (Perkin Elmer Life Sciences, Optiphase Supermix or Hi-Safe 3).
`C=CCN1CCC2(CC1)CN(C(=O)c1cccnc1SC)c1ccc(F)cc12` [Compound 215, 1′-(allyl)-1,2-dihydro-5-fluoro-1-(2-methylsulfanyl-pyridine-3-carbonyl)-spiro[3H-indole-3,4′-piperidine]]: the IC50 (commonly the concentration that gives 50% inhibition) is 607 nM. With `C=CCN1CCC2(CC1)CN(C(=O)c1ccc(Br)s1)c1ccc(F)cc12` [Compound 223, 1′-(allyl)-1,2-dihydro-5-fluoro-1-(5-bromo-thiophene-2-carbonyl)-spiro[3H-indole-3,4′-piperidine]], the half-inhibitory concentration (IC50) was found to be 307 nM.

For `C=CCN1CCC2(CC1)CN(S(=O)(=O)c1ccccc1F)c1ccc(F)cc12` [Compound 229, 1′-(allyl)-1,2-dihydro-5-fluoro-1-(2-fluoro-benzenesulfonyl)-spiro[3H-indole-3,4′-piperidine]], the IC50 turned out to be 846 nM.

The record behind these values is patent US20070254903A1, “Novel Spiroindoline or Spiroisoquinoline Compounds, Methods of Use and Compositions Thereof” (ARENA PHARMACEUTICALS, INC., priority 2003, published 2007).
